Experimental data taken from patent publication US20260365671A1, “HETEROCYCLIC COMPOUND” (Takeda Pharmaceutical Company Limited, priority 2022, published 2026).

Experiments:
[1] = target: T1, NLRP3 inflammasome (Homo sapiens, UniProt Q96P20); test: IL-1β TR-FRET assay (THP-1 cells differentiated to macrophages with IFN-γ, LPS primed, ATP activated; HTRF); assay type: cell-based; conditions: THP-1 macrophages, 50 ng/mL LPS priming, compound 30 min, 20 mM ATP 2 hours
T1 construct: IL-1beta HTRF
Method: (§1) The biological activity of Compound (I) with respect to NLRP3 was determined using the following in vitro methods.
IL-1β TR-FRET Assay (Reported as IC50)
Monocytic THP-1 cells (ATCC: TIB-202) were maintained in accordance with the provider's instructions in RPMI media (Life Technologies, Cat #A10491-01); RPMI was supplemented with 10% heat inactivated fetal bovine serum (Corning, Cat #35-010-CV). The cells were differentiated into macrophages by the addition of 25 ng/mL IFN-γ (PeproTech, Cat #AF300-02-100UG) for 24 hours at 37 °C/5% CO2. Media was exchanged with fresh media with no FBS, and the cells were treated with 50 ng/mL LPS (priming step) (LPS-EK: Invivogen, Cat #tlrl-peklps). The cells were plated at 240,000 cells per well in 384-well flat-bottom cell culture plates (FALCON, Cat #353962) and were incubated for 24 hours at 37 °C/5% CO2. Compounds were serially diluted (half log dilutions) with DMSO and were finally diluted with Media with no FBS. The compounds were added to the cells in 384-well plates (added in 1:3) and then the plates were incubated for 30 minutes at 37 °C/5% CO2. The NLRP3 inflammasome was activated with the addition of 20 mM ATP (Sigma Cat #A3377-25G) and the cells were incubated for 2 hours at 37 °C/5% CO2. At the end of the incubation period, 30 μL supernatant was transferred to another 384-well plate and mixed on a plate shaker for 1 minutes. The supernatant was mixed with HTRF Antibody (Human IL1 beta kit, Cisbio, 62HIL1BPEH) in assay plates (Greiner Bio-One, Cat #784075) and the assay plates were incubated in shading box at room temperature for 16-24 hours. HTRF signal was measured by EnVision (Perkinelmer) in accordance with the manufacturer's instructions.
(§2) The IC50 values were calculated from a plot of percentage of inhibition versus the inhibitor concentration by a logistics curve fit according to: Y=[Bottom+(Top−Bottom)]/(1+10^[(Log IC50−X)·Hill Slope], where Y is the % inhibition at the inhibitor concentration, X, “Bottom” is the lowest inhibition value, i.e., 0%, “Top” is the maximum inhibition value, i.e., 100%, and the “Hill Slope” describes the slope of the sigmoidal curve between the “Bottom” and “Top” values. The curve fitting was conducted with XLfit (ver. 5.5.0.5, ID Business Solutions Limited) or internally developed software.
(§3) Table 2 lists in vitro biological assay data (IL-1β and TNF-α) for the compounds shown in the examples. These assays are described in the section entitled Biological Activity, above.

[2] = test system: NF-κB pathway; test: TNF-α assay (THP-1 cells differentiated to macrophages with IFN-γ, NF-κB pathway activated with LPS; ELISA); assay type: cell-based, Human; conditions: Homo sapiens, THP-1, THP-1 macrophages, compound 30 min, 50 ng/mL LPS 3 hours
Method: as §1
TNF-α Assay (Reported as IC50)
Monocytic THP-1 cells (ATCC: TIB-202) were maintained in accordance with the provider's instructions in RPMI media (Life Technologies, Cat #A10491-01); RPMI was supplemented with 10% heat inactivated fetal bovine serum (Hyclone Cat #SH30396.03). The cells were differentiated into macrophages by the addition of 25 ng/mL IFN-γ for 24 hours at 37 °C/5% CO2. Media was exchanged with fresh media with no FBS. The cells were plated at 40,000 cells per well in 384-well flat-bottom cell culture plates (Costar 3764) containing compounds (added in 1:1000) in a 1:3.16 serial dilution series in DMSO and were incubated for 30 minutes at 37 °C/5% CO2. The NF-κB pathway was activated with the addition of 50 ng/mL LPS and the cells were incubated for 3 hours at 37 °C/5% CO2. At the end of the incubation period, supernatant ([…]) was removed, and […] were monitored using an ELISA (Human TNF-α ELISA, R&D systems, Cat #DY210) according to the manufacturer's instructions.
as §2, §3

T1 sequence (Q96P20 whole entry): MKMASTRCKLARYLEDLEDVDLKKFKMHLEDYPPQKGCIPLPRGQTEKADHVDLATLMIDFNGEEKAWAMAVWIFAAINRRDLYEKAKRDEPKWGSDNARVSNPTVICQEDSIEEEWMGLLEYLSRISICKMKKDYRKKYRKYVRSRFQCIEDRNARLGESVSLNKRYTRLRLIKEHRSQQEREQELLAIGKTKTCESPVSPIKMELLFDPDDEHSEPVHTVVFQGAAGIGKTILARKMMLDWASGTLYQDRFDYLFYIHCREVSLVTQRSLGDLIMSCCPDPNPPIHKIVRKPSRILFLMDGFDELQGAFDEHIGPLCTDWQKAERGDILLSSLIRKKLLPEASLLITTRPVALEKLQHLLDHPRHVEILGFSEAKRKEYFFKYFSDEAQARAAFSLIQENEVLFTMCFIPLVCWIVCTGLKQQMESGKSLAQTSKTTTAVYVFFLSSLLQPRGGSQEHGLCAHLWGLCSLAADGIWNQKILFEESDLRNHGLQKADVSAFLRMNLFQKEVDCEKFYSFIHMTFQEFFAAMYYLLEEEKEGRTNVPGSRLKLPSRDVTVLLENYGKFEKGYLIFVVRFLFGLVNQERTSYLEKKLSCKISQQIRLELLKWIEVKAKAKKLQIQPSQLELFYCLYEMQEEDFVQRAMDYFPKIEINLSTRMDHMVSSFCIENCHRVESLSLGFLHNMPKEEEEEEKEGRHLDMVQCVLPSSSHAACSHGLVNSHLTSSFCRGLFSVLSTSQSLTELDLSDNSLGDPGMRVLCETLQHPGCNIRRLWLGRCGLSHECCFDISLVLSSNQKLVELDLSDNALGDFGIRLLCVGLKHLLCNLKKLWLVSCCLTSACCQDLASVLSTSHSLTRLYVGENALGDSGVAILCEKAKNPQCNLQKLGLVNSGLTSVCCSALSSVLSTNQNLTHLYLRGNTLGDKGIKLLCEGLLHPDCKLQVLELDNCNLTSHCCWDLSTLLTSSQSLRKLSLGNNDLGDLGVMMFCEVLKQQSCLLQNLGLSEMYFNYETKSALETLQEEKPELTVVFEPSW

Compound	IC50 [1] [nM]	IC50 [2] [nM]
COCCN(c1nc2nn(-c3c(C)cc(C)cc3O)cc2s1)[C@@H]1CCCN(C)C1 [Example 52, 2-(5-{(2-methoxyethyl)[(3R)-1-methylpiperidin-3-yl]amino}-2H-pyrazolo[3,4-d][1,3]thiazol-2-yl)-3,5-dimethylphenol]	200	> 10000
Cc1cc(O)c(-n2cc3sc(N[C@@H]4C[C@@H](F)CN(C)C4)nc3n2)c(COC(F)F)c1 [Example 176, 3-[(difluoromethoxy)methyl]-2-(5-{[(3R,5R)-5-fluoro-1-methylpiperidin-3-yl]amino}-2H-pyrazolo[3,4-d][1,3]thiazol-2-yl)-5-methylphenol]	22	> 30000
Cc1cc(O)c(-n2cc3sc(N[C@@H]4C[C@@H](F)CN(C)C4)nc3n2)c(C(C)C)c1 [Example 94, 2-(5-{[(3R,5R)-5-fluoro-1-methylpiperidin-3-yl]amino}-2H-pyrazolo[3,4-d][1,3]thiazol-2-yl)-5-methyl-3-(propan-2-yl)phenol]	31	> 30000
Cc1cc(C)c(-n2cc3sc(N[C@@H]4C[C@H](C(F)F)CN(C)C4)nc3n2)c(O)c1 [Example 33, 2-(5-{[(3R,5S)-5-(difluoromethyl)-1-methylpiperidin-3-yl]amino}-2H-pyrazolo[3,4-d][1,3]thiazol-2-yl)-3,5-dimethylphenol]	1500	> 10000
Cc1cc(O)c(-n2cc3sc(NC[C@@H](C)O)nc3n2)c(C2CC2(F)F)c1 (stereo partly drawn) [Example 141, 3-(2,2-difluorocyclopropyl)-2-(5-{[(2R)-2-hydroxypropyl]amino}-2H-pyrazolo[3,4-d][1,3]thiazol-2-yl)-5-methylphenol]	59	> 30000
Cc1cc(C)c(-n2cc3sc(NC4CCCN(C(=O)CC(F)F)C4)nc3n2)c(O)c1 (centres unmarked) [Example 113, 3,3-difluoro-1-(3-{[2-(2-hydroxy-4,6-dimethylphenyl)-2H-pyrazolo[3,4-d][1,3]thiazol-5-yl]amino}piperidin-1-yl)propan-1-one]	510	> 30000
Cc1cc(C)c(-n2cc3sc(NC4CCN(C(=O)CC(F)F)C4)nc3n2)c(O)c1 (centres unmarked) [Example 68, 3,3-difluoro-1-(3-{[2-(2-hydroxy-4,6-dimethylphenyl)-2H-pyrazolo[3,4-d][1,3]thiazol-5-yl]amino}pyrrolidin-1-yl)propan-1-one]	220	> 10000
Cc1cc(C)c(-n2cc3sc(NC45CCC(O)(CC4)C5)nc3n2)c(O)c1 [Example 57, 4-{[2-(2-hydroxy-4,6-dimethylphenyl)-2H-pyrazolo[3,4-d][1,3]thiazol-5-yl]amino}bicyclo[2.2.1]heptan-1-ol]	130	> 10000
Cc1cc(C)c(-n2cc3sc(NC4CCN(C(=O)OCc5ccccc5)C4)nc3n2)c(O)c1 (centres unmarked) [Example 77, benzyl 3-{[2-(2-hydroxy-4,6-dimethylphenyl)-2H-pyrazolo[3,4-d][1,3]thiazol-5-yl]amino}pyrrolidine-1-carboxylate]	470	> 10000

Now from value to molecule:

IC50 [1] [nM]	IC50 [2] [nM]	Compound
380	> 30000	Cc1cc(C)c(-n2cc3sc(NCC4(O)CC4)nc3n2)c(O)c1 [Example 84, 2-(5-{[(1-hydroxycyclopropyl)methyl]amino}-2H-pyrazolo[3,4-d][1,3]thiazol-2-yl)-3,5-dimethylphenol]
260	> 30000	Cc1cc(C)c(-n2cc3sc(NC4COCC4O)nc3n2)c(O)c1 (centres unmarked) [Example 159, 4-{[2-(2-hydroxy-4,6-dimethylphenyl)-2H-pyrazolo[3,4-d][1,3]thiazol-5-yl]amino}oxolan-3-ol]
550	> 30000	Cc1cc(C)c(-n2cc3sc(N[C@H]4COC[C@@H]4F)nc3n2)c(O)c1 (single isomer, unassigned) [Example 142, 2-(5-{[(3R,4S)-4-fluorooxolan-3-yl]amino}-2H-pyrazolo[3,4-d][1,3]thiazol-2-yl)-3,5-dimethylphenol or 2-(5-{[(3S,4R)-4-fluorooxolan-3-yl]amino}-2H-pyrazolo[3,4-d][1,3]thiazol-2-yl)-3,5-dimethylphenol (tR1)]
1100	> 30000	Cc1cc(C)c(-n2cc3sc(NCCN4CCOCC4)nc3n2)c(O)c1 [Example 54, 3,5-dimethyl-2-(5-{[2-(morpholin-4-yl)ethyl]amino}-2H-pyrazolo[3,4-d][1,3]thiazol-2-yl)phenol]
230	> 30000	CC(=O)NCCCNc1nc2nn(-c3c(C)cc(C)cc3O)cc2s1 [Example 56, N-(3-{[2-(2-hydroxy-4,6-dimethylphenyl)-2H-pyrazolo[3,4-d][1,3]thiazol-5-yl]amino}propyl) acetamide]
1000	> 10000	COC(C)(C)CNc1nc2nn(-c3c(C)cc(C)cc3O)cc2s1 [Example 114, 2-{5-[(2-methoxy-2-methylpropyl)amino]-2H-pyrazolo[3,4-d][1,3]thiazol-2-yl}-3,5-dimethylphenol]
250	> 30000	Cc1cc(C)c(-n2cc3sc(NCC(C)(C)O)nc3n2)c(O)c1 [Example 66, 2-{5-[(2-hydroxy-2-methylpropyl)amino]-2H-pyrazolo[3,4-d][1,3]thiazol-2-yl}-3,5-dimethylphenol]
540	> 10000	Cc1cc(C)c(-n2cc3sc(NC4CCCC(O)C4)nc3n2)c(O)c1 (centres unmarked) [Example 29, 2-{5-[(3-hydroxycyclohexyl)amino]-2H-pyrazolo[3,4-d][1,3]thiazol-2-yl}-3,5-dimethylphenol]
310	> 30000	CCC(=O)N1C[C@H](Nc2nc3nn(-c4c(C)cc(C)cc4O)cc3s2)[C@@H](F)C1 (racemic) [Example 105, racemic mixture of 1-[(3R,4R)-3-fluoro-4-{[2-(2-hydroxy-4,6-dimethylphenyl)-2H-pyrazolo[3,4-d][1,3]thiazol-5-yl]amino}pyrrolidin-1-yl]propan-1-one and 1-[(3S,4S)-3-fluoro-4-{[2-(2-hydroxy-4,6-dimethylphenyl)-2H-pyrazolo[3,4-d][1,3]thiazol-5-yl]amino}pyrrolidin-1-yl]propan-1-one]
350	> 30000	CC(=O)N1CCC(Nc2nc3nn(-c4c(C)cc(C)cc4O)cc3s2)C1 (centres unmarked) [Example 85, 1-(3-{[2-(2-hydroxy-4,6-dimethylphenyl)-2H-pyrazolo[3,4-d][1,3]thiazol-5-yl]amino}pyrrolidin-1-yl)ethan-1-one]
590	> 30000	CCC(=O)N1CCCC(Nc2nc3nn(-c4c(C)cc(C)cc4O)cc3s2)C1 (centres unmarked) [Example 109, 1-(3-{[2-(2-hydroxy-4,6-dimethylphenyl)-2H-pyrazolo[3,4-d][1,3]thiazol-5-yl]amino}piperidin-1-yl)propan-1-one]
400	> 30000	Cc1cc(C)c(-n2cc3sc(NC(C)C(C)O)nc3n2)c(O)c1 (centres unmarked) [Example 140, 2-{5-[(3-hydroxybutan-2-yl)amino]-2H-pyrazolo[3,4-d] [1,3]thiazol-2-yl}-3,5-dimethylphenol]
830	> 10000	Cc1cc(C)c(-n2cc3sc(N[C@H]4CC[C@@H](O)CC4)nc3n2)c(O)c1 [Example 26, 2-{5-[(cis-4-hydroxycyclohexyl)amino]-2H-pyrazolo[3,4-d][1,3]thiazol-2-yl}-3,5-dimethylphenol]
